Source: the NIST ThermoML archive (doi:10.1021/je300153f)

Settings: for mass density / electrical conductivity / viscosity: 101.33 kPa; for mass density / electrical conductivity / surface tension liquid-gas / viscosity: Liquid; for electrical conductivity: MP522 conductivity meter; for surface tension liquid-gas: Maximal bubble pressure; for viscosity: Capillary tube (Ostwald / Ubbelohde) method

CCCC[n+]1cccc(C)c1.O=S(=O)([N-]S(=O)(=O)C(F)(F)F)C(F)(F)F
Settings	electrical conductivity [S/m]	mass density [kg/m3]	surface tension liquid-gas [mN/m]	viscosity [mPa·s]
278.15 K	0.1	1439.9	–	–
283.15 K	0.132	1435.7	29.2	–
288.15 K	0.172	1431.5	28.8	–
293.15 K	0.217	1427.1	28.4	–
298.15 K	0.272	1422.6	28.2	63.2
303.15 K	0.335	1418.3	27.8	51.1
308.15 K	0.409	1414.2	27.4	41.4
313.15 K	0.49	1409.8	27.2	34
318.15 K	0.576	1405.1	26.7	28.4
323.15 K	0.69	1400.7	26.4	23.9
328.15 K	0.796	1396.4	26.1	20.3
333.15 K	0.91	1392.1	25.8	17.5
338.15 K	1.03	1387.6	25.4	15.2
343.15 K	1.16	–	–	13
348.15 K	1.3	–	–	11.3
353.15 K	1.44	–	–	10

Settings	Glass transition temperature [°C]
Glass, DTA	-82.3
